≈ marks a conversion by molar mass, not a printed value.
How the values were obtained:
Type in all cases: functional
[1] = test system: Staphylococcus aureus; assay: Antimicrobial activity against methicillin-resistant Staphylococcus aureus ATCC 43300 after overnight incubation
[2] = test system: Enterococcus faecium; assay: Antimicrobial activity against vancomycin-resistant Enterococcus faecium 243 after overnight incubation
[3] = test system: Enterococcus faecium; assay: Antimicrobial activity against vancomycin-resistant Enterococcus faecium 449 after overnight incubation
[4] = test system: Enterococcus faecium; assay: Antimicrobial activity against vancomycin-resistant Enterococcus faecium 820 after overnight incubation
[5] = test system: Enterococcus faecium; assay: Antimicrobial activity against vancomycin-resistant Enterococcus faecium 987 after overnight incubation

Compound | MIC50 [1] [mg/L] | MIC50 [2] [mg/L] | MIC50 [3] [mg/L] | MIC50 [4] [mg/L] | MIC50 [5] [mg/L]
CC(C)CCOc1ccc2ccccc2c1-c1c(OCC(=O)N[C@H](CCCCN)C(=O)N[C@H](CCCNC(=N)N)C(=O)N[C@@H](CC(C)C)C(=O)Oc2ccccc2)ccc2ccccc12.Cl.Cl | 3.9 | 15.6 | 15.6 | 7.8 | 15.6
C=CC[C@H](NC(=O)[C@@H](CCCNC(=N)N)NC(=O)[C@@H](CCCCN)NC(=O)COc1ccc2ccccc2c1-c1c(OC)ccc2ccccc12)C(=O)OCc1ccccc1.Cl.Cl | 7.8 | 125 | 62.5 | 62.5 | 125
CC(C)C[C@H](NC(=O)[C@@H](CCCNC(=N)N)NC(=O)[C@@H](CCCCN)NC(=O)COc1ccc2ccccc2c1-c1c(OCCC2CC2)ccc2ccccc12)C(=O)OCc1ccccc1.Cl.Cl | 3.9 | 125 | 31.3 | 62.5 | 62.5
CC(C)CCOc1ccccc1-c1ccccc1OCC(=O)N[C@H](CCCCN)C(=O)N[C@H](CCCNC(=N)N)C(=O)N[C@@H](CC(C)C)C(=O)OCc1ccccc1.Cl.Cl | 1.95 | 31.3 | 31.3 | 31.3 | 31.3
C=CCOc1ccc2ccccc2c1-c1c(OCC(=O)N[C@H](CCCCN)C(=O)N[C@H](CCCNC(=N)N)C(=O)N[C@@H](CC=C)C(=O)OCc2ccccc2)ccc2ccccc12.Cl.Cl | 1.96 | 31.3 | 31.3 | 31.3 | 31.3
C=CCOc1ccc2ccccc2c1-c1c(OCC(=O)OCC)ccc2ccccc12 | 3.9 (≈ 9.45 µM) | 31.3 (≈ 75.9 µM) | 31.3 (≈ 75.9 µM) | 31.3 (≈ 75.9 µM) | 62.5 (≈ 152 µM)
C=CC[C@H](NC(=O)[C@@H](CCCNC(=N)N)NC(=O)[C@@H](CCCCN)NC(=O)COc1ccc2ccccc2c1-c1c(OCC2CCC2)ccc2ccccc12)C(=O)OCc1ccccc1.Cl.Cl | 3.9 | 62.5 | 52.1 | 31.3 | 62.5
C=CC[C@H](NC(=O)[C@@H](CCCNC(=N)N)NC(=O)[C@@H](CCCCN)NC(=O)COc1ccc2ccccc2c1-c1c(OCCCCC)ccc2ccccc12)C(=O)OCc1ccccc1.Cl.Cl | 3.9 | 62.5 | 62.5 | 31.3 | 62.5
C=CC[C@H](NC(=O)[C@@H](CCCNC(=N)N)NC(=O)[C@@H](CCCCN)NC(=O)COc1ccc2ccccc2c1-c1c(OCC2CCCCC2)ccc2ccccc12)C(=O)OCc1ccccc1.Cl.Cl | 3.9 | 62.5 | 62.5 | 31.3 | 62.5
C=CC[C@H](NC(=O)[C@@H](CCCNC(=N)N)NC(=O)[C@@H](CCCCN)NC(=O)COc1ccc2ccccc2c1-c1c(OCCCc2ccccc2)ccc2ccccc12)C(=O)OCc1ccccc1.Cl.Cl | 3.9 | 62.5 | 31.3 | 31.3 | 62.5
C[C@H](NC(=O)[C@@H](CCCNC(=N)N)NC(=O)[C@@H](CCCCN)NC(=O)COc1ccc2ccccc2c1-c1c(O)ccc2ccccc12)C(=O)OCc1ccccc1.Cl.Cl | 7.8 | 125 | 52.1 | 62.5 | 125
CCCCCCCCOc1ccc2ccccc2c1-c1c(OCC(=O)N[C@H](CCCCN)C(=O)N[C@H](CCCNC(=N)N)C(=O)N[C@@H](CC(C)C)C(=O)OCc2ccccc2)ccc2ccccc12.Cl.Cl | 13 | 125 | 125 | 62.5 | 125
COCCOc1ccc2ccccc2c1-c1c(OCC(=O)N[C@H](CCCCN)C(=O)N[C@H](CCCNC(=N)N)C(=O)N[C@@H](CC(C)C)C(=O)OCc2ccccc2)ccc2ccccc12.Cl.Cl | 3.9 | 125 | 31.3 | 62.5 | 62.5
CN[C@H](CC(C)C)C(=O)N[C@H]1C(=O)N[C@@H](CC(N)=O)C(=O)N[C@H]2C(=O)N[C@H]3C(=O)N[C@H](C(=O)N[C@H](C(=O)O)c4cc(O)cc(O)c4-c4cc3ccc4O)[C@H](O)c3ccc(c(Cl)c3)Oc3cc2cc(c3O[C@@H]2O[C@H](CO)[C@@H](O)[C@H](O)[C@H]2O[C@H]2C[C@](C)(N)[C@H](O)[C@H](C)O2)Oc2ccc(cc2Cl)[C@H]1O [VANCOMYCIN] | 1.95 (≈ 1.35 µM) | 1.95 (≈ 1.35 µM) | 62.5 (≈ 43.1 µM) | > 125 | < 0.98
C=CC[C@H](NC(=O)[C@@H](CCCNC(=N)N)NC(=O)[C@@H](CCCCN)NC(=O)COc1ccc2ccccc2c1-c1c(OCC(C)C)ccc2ccccc12)C(=O)OCc1ccccc1.Cl.Cl | 1.95 | 62.5 | 52.1 | 31.3 | 62.5
C=CC[C@H](NC(=O)[C@@H](CCCNC(=N)N)NC(=O)[C@@H](CCCCN)NC(=O)COc1ccc2ccccc2c1-c1c(OCC(C)(C)C)ccc2ccccc12)C(=O)OCc1ccccc1.Cl.Cl | 3.9 | 62.5 | 62.5 | 31.3 | 83.3
CC(C)C[C@H](NC(=O)[C@@H](CCCNC(=N)N)NC(=O)[C@@H](CCCCN)NC(=O)COc1ccc2ccccc2c1-c1c(OCC#N)ccc2ccccc12)C(=O)OCc1ccccc1.Cl.Cl | 3.9 | 62.5 | 31.3 | 31.3 | 62.5
CC(C)C[C@H](NC(=O)[C@@H](CCCNC(=N)N)NC(=O)[C@@H](CCCCN)NC(=O)COc1ccc2ccccc2c1-c1c(OCCc2ccccc2)ccc2ccccc12)C(=O)OCc1ccccc1.Cl.Cl | 5.2 | 31.3 | 31.3 | 15.6 | 31.3
C=CC[C@H](NC(=O)[C@@H](CCCNC(=N)N)NC(=O)[C@@H](CCCCN)NC(=O)COc1ccc2ccccc2c1-c1c(OCc2ccccc2)ccc2ccccc12)C(=O)OCc1ccccc1.Cl.Cl | 3.9 | 62.5 | 62.5 | 62.5 | 125

Reference: ChEMBL document CHEMBL1177642, “Synthesis and antibacterial studies of binaphthyl-based tripeptoids. Part 2” (2010)
